Key:
Type in all cases: in vivo
[1] = system: Alopecurus myosuroides (ALOMY); assay: Pre-emergence herbicidal activity, glasshouse pot test; settings: Alopecurus myosuroides, 312 h; Rate 250 g/ha; pre-emergence spray; evaluated after 13 days; read-out: Pre-emergence activity ALOMY (100=total damage to plant; 0=no damage to plant)
Protocol: (§1) Seeds of a variety of test species were sown in standard soil in pots. After cultivation for one day (pre-emergence) or after 8 days cultivation (post-emergence) under controlled conditions in a glasshouse (at 24/16° C., day/night; 14 hours light; 65% humidity), the plants were sprayed with an aqueous spray solution derived from the formulation of the technical active ingredient in acetone/water (50:50) solution containing 0.5% Tween 20 (polyoxyethelyene sorbitan monolaurate, CAS RN 9005-64-5). The test plants were then grown in a glasshouse under controlled conditions in a glasshouse (at 24/16° C., day/night; 14 hours light; 65% humidity) and watered twice daily. After 13 days for pre and post-emergence, the test was evaluated (100=total damage to plant; 0=no damage to plant).
(§2) Lolium perenne (LOLPE), Alopecurus myosuroides (ALOMY), Echinochloa crus-galli (ECHCG), and Avena fatua (AVEFA).

[2] = system: Avena fatua (AVEFA); assay: as above; settings: Avena fatua, 312 h; Rate 250 g/ha; pre-emergence spray; evaluated after 13 days; read-out: Pre-emergence activity AVEFA (100=total damage to plant; 0=no damage to plant)
Protocol: as §1, §2

[3] = system: Echinochloa crus-galli (ECHCG); assay: as above; settings: Echinochloa crus-galli, 312 h; Rate 250 g/ha; pre-emergence spray; evaluated after 13 days; read-out: Pre-emergence activity ECHCG (100=total damage to plant; 0=no damage to plant)
Protocol: as §1, §2

[4] = system: Lolium perenne (LOLPE); assay: as above; settings: Lolium perenne, 312 h; Rate 250 g/ha; pre-emergence spray; evaluated after 13 days; read-out: Pre-emergence activity LOLPE (100=total damage to plant; 0=no damage to plant)
Protocol: as §1, §2

[5] = system: Alopecurus myosuroides (ALOMY); assay: Post-emergence herbicidal activity, glasshouse pot test; settings: Alopecurus myosuroides, 312 h, rate 250 g/ha, evaluated after 13 days, glasshouse, read-out: Post-emergence activity ALOMY (100=total damage to plant; 0=no damage to plant)
Protocol: as §1, §2

[6] = system: Avena fatua (AVEFA); assay: as above; settings: Avena fatua, 312 h, rate 250 g/ha, evaluated after 13 days, glasshouse, read-out: Post-emergence activity AVEFA (100=total damage to plant; 0=no damage to plant)
Protocol: as §1, §2

[7] = system: Echinochloa crus-galli (ECHCG); assay: as above; settings: Echinochloa crus-galli, 312 h, rate 250 g/ha, evaluated after 13 days, glasshouse, read-out: Post-emergence activity ECHCG (100=total damage to plant; 0=no damage to plant)
Protocol: as §1, §2

[8] = system: Lolium perenne (LOLPE); assay: as above; settings: Lolium perenne, 312 h, rate 250 g/ha, evaluated after 13 days, glasshouse, read-out: Post-emergence activity LOLPE (100=total damage to plant; 0=no damage to plant)
Protocol: as §1, §2

`CCc1ccc(Oc2cc(C)ccn2)cc1C1=C(O)C(C)(C)OC(C)(C)C1=O` [Example A-64] showed a pest or weed control at 250 g/ha [1] of 60%, a pest or weed control at 250 g/ha [2] of 0% and a pest or weed control at 250 g/ha [3] of 20%. It also gave a pest or weed control at 250 g/ha [4] of 80%, a pest or weed control at 250 g/ha [5] of 40% and a pest or weed control at 250 g/ha [6] of 0%. The pest or weed control at 250 g/ha [7] was 30% and the pest or weed control at 250 g/ha [8] was 40%.
In the case of `CC1(C)OC(C)(C)C(O)=C(c2cc(Oc3cnc4cc(Cl)ccc4n3)ccc2C2CC2)C1=O` [Example A-279], the pest or weed control at 250 g/ha [1] was 90%, the pest or weed control at 250 g/ha [2] was 100% and the pest or weed control at 250 g/ha [3] was 100%. For the same compound, the pest or weed control at 250 g/ha [4] was 100%, the pest or weed control at 250 g/ha [5] was 100% and the pest or weed control at 250 g/ha [6] was 100%. For the same compound, the pest or weed control at 250 g/ha [7] was 100% and the pest or weed control at 250 g/ha [8] was 100%.
`CCc1ccc(Oc2ccc(Cl)cc2F)cc1C1=C(O)CC(C)(C)CC1=O` [Example A-30] gave a pest or weed control at 250 g/ha [1] of 70%, a pest or weed control at 250 g/ha [2] of 50% and a pest or weed control at 250 g/ha [3] of 80%. For the same compound, the pest or weed control at 250 g/ha [4] was 70%, the pest or weed control at 250 g/ha [5] was 70% and the pest or weed control at 250 g/ha [6] was 60%. The pest or weed control at 250 g/ha [7] was 100% and the pest or weed control at 250 g/ha [8] was 60%.
Compound `CCc1ccc(Oc2ncc(C)nc2C)cc1C1=C(O)C(C)(C)OC(C)(C)C1=O` [Example A-135] has a pest or weed control at 250 g/ha [1] of 10%, a pest or weed control at 250 g/ha [2] of 0% and a pest or weed control at 250 g/ha [3] of 30%. The pest or weed control at 250 g/ha [4] was 10%, the pest or weed control at 250 g/ha [5] was 30% and the pest or weed control at 250 g/ha [6] was 20%. For the same compound, the pest or weed control at 250 g/ha [7] was 50% and the pest or weed control at 250 g/ha [8] was 30%.
Work on `CCc1ccc(Oc2cc(C)c(Cl)nn2)cc1C1=C(O)C(C)(C)OC(C)(C)C1=O` [Example A-121] yielded a pest or weed control at 250 g/ha [1] of 10%, a pest or weed control at 250 g/ha [2] of 0% and a pest or weed control at 250 g/ha [3] of 10%. The pest or weed control at 250 g/ha [4] was 0%, the pest or weed control at 250 g/ha [5] was 10% and the pest or weed control at 250 g/ha [6] was 0%. For the same compound, the pest or weed control at 250 g/ha [7] was 50% and the pest or weed control at 250 g/ha [8] was 20%.
In the case of `CCc1ccc(Oc2nc(C(F)(F)F)c(C#N)s2)cc1C1=C(O)C(C)(C)OC(C)(C)C1=O` [Example A-115], the pest or weed control at 250 g/ha [1] was 0%, the pest or weed control at 250 g/ha [2] was 0% and the pest or weed control at 250 g/ha [3] was 0%. For the same compound, the pest or weed control at 250 g/ha [4] was 0%, the pest or weed control at 250 g/ha [5] was 0% and the pest or weed control at 250 g/ha [6] was 10%. The pest or weed control at 250 g/ha [7] was 60% and the pest or weed control at 250 g/ha [8] was 0%.
`CCc1ccc(Oc2ccc(Cl)c(F)c2)cc1C1=C(O)C(C)(C)OC(C)(C)C1=O` [Example A-31] gave a pest or weed control at 250 g/ha [1] of 90%, a pest or weed control at 250 g/ha [2] of 80% and a pest or weed control at 250 g/ha [3] of 100%. The pest or weed control at 250 g/ha [4] was 100%, the pest or weed control at 250 g/ha [5] was 90% and the pest or weed control at 250 g/ha [6] was 80%. It also gave a pest or weed control at 250 g/ha [7] of 100% and a pest or weed control at 250 g/ha [8] of 100%.
`CCc1ccc(Oc2ccc([N+](=O)[O-])cc2Cl)cc1C1=C(O)C(C)(C)OC(C)(C)C1=O` [Example A-201] was tested, and the pest or weed control at 250 g/ha [1] was 10%, the pest or weed control at 250 g/ha [2] was 0% and the pest or weed control at 250 g/ha [3] was 60%. For the same compound, the pest or weed control at 250 g/ha [4] was 30%, the pest or weed control at 250 g/ha [5] was 60% and the pest or weed control at 250 g/ha [6] was 60%. It also gave a pest or weed control at 250 g/ha [7] of 100% and a pest or weed control at 250 g/ha [8] of 70%.
`CCc1ccc(Oc2ccc(Cl)cc2Cl)cc1C1=C(O)CC(C)(C)CC1=O` [Example A-71] showed a pest or weed control at 250 g/ha [1] of 30%, a pest or weed control at 250 g/ha [2] of 0% and a pest or weed control at 250 g/ha [3] of 90%. It also gave a pest or weed control at 250 g/ha [4] of 40%, a pest or weed control at 250 g/ha [5] of 60% and a pest or weed control at 250 g/ha [6] of 30%. For the same compound, the pest or weed control at 250 g/ha [7] was 90% and the pest or weed control at 250 g/ha [8] was 60%.

From patent US8865623B2, “Herbicidally active cyclic diones and derivatives thereof, processes for their preparation, compositions, and method of controlling weeds” (Syngenta Limited, priority 2009, dated 2014)
